From US11059766B2, “Ethynyl derivatives” (Hoffmann-La Roche Inc., priority 2015, dated 2021)
pEC50: −log10 of the molar value.

Tests used:
human mGlu5a receptor [1] = target: T1, human mGlu5a receptor (Homo sapiens (Human), UniProt P41594); experiment: Intracellular Ca2+ mobilization assay (mGlu5 PAM assay); assay type: cell-based; settings: for mGlu5 PAM EC50: HEK-293 cells, glutamate at EC20; for Activity profile: PAM or NAM; for EC50 (nM) mGlu5 PAM assay: comparison table; for Efficacy: maximal response in % of maximal stimulatory effect of saturating L-glutamate
Protocol: A monoclonal HEK-293 cell line stably transfected with a cDNA encoding for the human mGlu5a receptor was generated; for the work with mGlu5 Positive Allosteric Modulators (PAMs), a cell line with low receptor expression levels and low constitutive receptor activity was selected to allow the differentiation of agonistic versus PAM activity. Cells were cultured according to standard protocols (Freshney, 2000) in Dulbecco's Modified Eagle Medium with high glucose supplemented with 1 mM glutamine, 10% (vol/vol) heat-inactivated bovine calf serum, Penicillin/Streptomycin, 50 μg/ml hygromycin and 15 μg/ml blasticidin (all cell culture reagents and antibiotics from Invitrogen, Basel, Switzerland).
About 24 hrs before an experiment, 5×10^4 cells/well were seeded in poly-D-lysine coated, black/clear-bottomed 96-well plates. The cells were loaded with 2.5 μM Fluo-4AM in loading buffer (1×HBSS, 20 mM HEPES) for 1 hr at 37° C. and washed five times with loading buffer. The cells were transferred into a Functional Drug Screening System 7000 (Hamamatsu, Paris, France), and 11 half logarithmic serial dilutions of test compound at 37° C. were added and the cells were incubated for 10-30 min with on-line recording of fluorescence. Following this pre-incubation step, the agonist L-glutamate was added to the cells at a concentration corresponding to EC20 (typically around 80 μM) with on-line recording of fluorescence; in order to account for day-to-day variations in the responsiveness of cells, the EC20 of glutamate was determined immediately ahead of each experiment by recording of a full dose-response curve of glutamate.
Responses were measured as peak increase in fluorescence minus basal (i.e. fluorescence without addition of L-glutamate), normalized to the maximal stimulatory effect obtained with saturating concentrations of L-glutamate. Graphs were plotted with the % maximal stimulatory using XLfit, a curve fitting program that iteratively plots the data using Levenburg Marquardt algorithm. The single site competition analysis equation used was y=A+((B−A)/(1+((x/C)D))), where y is the % maximal stimulatory effect, A is the minimum y, B is the maximum y, C is the EC50, x is the log 10 of the concentration of the competing compound and D is the slope of the curve (the Hill Coefficient). From these curves the EC50 (concentration at which half maximal stimulation was achieved), the Hill coefficient as well as the maximal response in % of the maximal stimulatory effect obtained with saturating concentrations of L-glutamate were calculated.
A depression of the signal observed after addition of the EC20 concentration of L-glutamate was indicative of an inhibitory activity of the test compound.

human mGlu5a receptor [2] = target: T1, human mGlu5a receptor; experiment: MPEP binding assay ([3H]MPEP displacement); settings: for pEC50: [3H]MPEP 2 nM, EBNA cell membranes, read-out: mGlu5-MPEP binding EC50; for Ki: comparison table
Protocol: For binding experiments, cDNA encoding human mGlu5a receptor was transiently transfected into EBNA cells using a procedure described by Schlaeger and Christensen [Cytotechnology 15:1-13 (1998)]. Cell membrane homogenates were stored at −80° C. until the day of assay where upon they were thawed and resuspended and polytronised in 15 mM Tris-HCl, 120 mM NaCl, 100 mM KCl, 25 mM CaCl2, 25 mM MgCl2 binding buffer at pH 7.4 to a final assay concentration of 20 μg protein/well.
Saturation isotherms were determined by addition of twelve [^3H]MPEP concentrations (0.04-100 nM) to these membranes (in a total volume of 200 μl) for 1 h at 4° C. Competition experiments were performed with a fixed concentration of [^3H]MPEP (2 nM) and IC50 values of test compounds evaluated using 11 concentrations (0.3-10,000 nM). Incubations were performed for 1 h at 4° C.
At the end of the incubation, membranes were filtered onto unifilter (96-well white microplate with bonded GF/C filter preincubated 1 h in 0.1% PEI in wash buffer, Packard BioScience, Meriden, Conn.) with a Filtermate 96 harvester (Packard BioScience) and washed 3 times with cold 50 mM Tris-HCl, pH 7.4 buffer. Nonspecific binding was measured in the presence of 10 μM MPEP. The radioactivity on the filter was counted (3 min) on a Packard Top-count microplate scintillation counter with quenching correction after addition of 45 μl of microscint 40 (Canberra Packard S. A., Zürich, Switzerland) and shaking for 20 min.

[3] = rat Vogel conflict drinking test; assay type: in vivo

T1 sequence (P41594 other isoform, or with tags, fused parts or gaps): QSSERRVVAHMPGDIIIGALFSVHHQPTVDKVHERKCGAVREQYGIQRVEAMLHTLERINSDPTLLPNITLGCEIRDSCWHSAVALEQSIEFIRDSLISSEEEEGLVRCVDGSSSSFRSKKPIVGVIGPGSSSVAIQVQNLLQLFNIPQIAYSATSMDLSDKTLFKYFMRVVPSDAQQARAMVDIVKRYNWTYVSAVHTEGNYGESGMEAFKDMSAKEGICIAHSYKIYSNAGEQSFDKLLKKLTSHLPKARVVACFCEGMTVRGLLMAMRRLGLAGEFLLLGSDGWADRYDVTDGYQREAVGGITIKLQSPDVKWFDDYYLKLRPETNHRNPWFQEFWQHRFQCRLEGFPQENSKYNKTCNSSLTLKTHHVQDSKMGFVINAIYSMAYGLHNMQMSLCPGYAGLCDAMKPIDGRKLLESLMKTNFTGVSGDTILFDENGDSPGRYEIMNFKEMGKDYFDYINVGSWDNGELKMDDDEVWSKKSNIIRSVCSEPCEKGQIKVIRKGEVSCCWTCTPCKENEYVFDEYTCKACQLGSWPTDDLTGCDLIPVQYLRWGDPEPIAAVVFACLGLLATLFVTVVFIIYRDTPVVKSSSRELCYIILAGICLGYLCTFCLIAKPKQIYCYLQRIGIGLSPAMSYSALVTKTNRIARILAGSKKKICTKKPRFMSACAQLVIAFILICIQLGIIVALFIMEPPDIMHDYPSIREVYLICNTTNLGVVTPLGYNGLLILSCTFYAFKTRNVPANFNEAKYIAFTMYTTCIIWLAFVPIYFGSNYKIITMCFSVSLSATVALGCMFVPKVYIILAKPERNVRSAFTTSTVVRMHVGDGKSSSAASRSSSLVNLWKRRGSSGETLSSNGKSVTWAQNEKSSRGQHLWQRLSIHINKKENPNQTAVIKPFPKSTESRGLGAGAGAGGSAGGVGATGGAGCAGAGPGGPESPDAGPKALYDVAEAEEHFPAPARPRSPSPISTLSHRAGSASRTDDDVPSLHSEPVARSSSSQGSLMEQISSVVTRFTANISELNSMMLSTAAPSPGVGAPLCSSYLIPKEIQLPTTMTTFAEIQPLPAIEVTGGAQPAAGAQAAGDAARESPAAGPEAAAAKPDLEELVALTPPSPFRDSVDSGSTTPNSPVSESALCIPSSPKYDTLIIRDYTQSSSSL

Which “mGlu5 PAM EC50” value (human mGlu5a receptor [1]) does the source give for CN1C(=O)N(c2ccc(C#Cc3ccccc3)cn2)[C@@H]2CC[C@@H]21 [Example 1, (−)-(1 S,5R)-2-methyl-4-(5-(phenylethynyl)pyridin-2-yl)-2,4-diazabicyclo[3.2.0]heptan-3-one] here?
Its value is “inactive”.

What about the Activity profile (human mGlu5a receptor [1]) of the same compound?
Its Activity profile is “NAM”.

What about the “EC50 (nM) mGlu5 PAM assay” value (human mGlu5a receptor [1]) of the same compound?
The value was “inactive”.

And the pEC50 (human mGlu5a receptor [2])?
The pEC50 was 8.05.

And the Ki (human mGlu5a receptor [2])?
The Ki was 9 nM.

And the “minimal effective dose (anxiolytic activity)” value [3]?
The value was 0.1 mg/kg.

What does the source list for CN1C(=O)N(c2ccc(C#Cc3cccc(F)c3)cn2)[C@@H]2CC[C@@H]21 [Example 2, (−)-(1R,5S)-2-[5-(3-Fluoro-phenylethynyl)-pyridin-2-yl]-4-methyl-2,4-diazabicyclo[3.2.0]heptan-3-one]?
mGlu5 PAM EC50 (human mGlu5a receptor [1]): inactive; Activity profile (human mGlu5a receptor [1]): NAM; EC50 (nM) mGlu5 PAM assay (human mGlu5a receptor [1]): inactive; pEC50 (human mGlu5a receptor [2]): 8.30; Ki (human mGlu5a receptor [2]): 5 nM

What does the source list for CN1C(=O)N(c2ccc(C#Cc3ccc(F)cc3)cn2)[C@@H]2CC[C@@H]21 [Example 3, (−)-(1R,5S)-2-[5-(4-Fluoro-phenylethynyl)-pyridin-2-yl]-4-methyl-2,4-diazabicyclo[3.2.0]heptan-3-one]?
mGlu5 PAM EC50 (human mGlu5a receptor [1]): inactive; Activity profile (human mGlu5a receptor [1]): NAM; EC50 (nM) mGlu5 PAM assay (human mGlu5a receptor [1]): inactive; pEC50 (human mGlu5a receptor [2]): 8.40; Ki (human mGlu5a receptor [2]): 4 nM

Which results are given for CN1C(=O)N(c2ccc(C#Cc3cc(F)ccc3F)cn2)[C@@H]2CC[C@@H]21 [Example 4, (−)-(1R,5S)-2-[5-(2,5-Difluoro-phenylethynyl)-pyridin-2-yl]-4-methyl-2,4-diazabicyclo[3.2.0]heptan-3-one]?
mGlu5 PAM EC50 (human mGlu5a receptor [1]): inactive; Activity profile (human mGlu5a receptor [1]): NAM; EC50 (nM) mGlu5 PAM assay (human mGlu5a receptor [1]): inactive; pEC50 (human mGlu5a receptor [2]): 8.52; Ki (human mGlu5a receptor [2]): 3 nM

With CN1C(=O)N(c2ccc(C#Cc3ccccc3)cn2)[C@@H]2CCC[C@@H]21 [Ref. 1; Ex. 106, reference compound] as the compound, how does the Activity profile (human mGlu5a receptor [1]) read?
The Activity profile was “PAM”.

And the Efficacy (human mGlu5a receptor [1])?
The Efficacy was 42%.

And the Ki (human mGlu5a receptor [2])?
Its Ki is 8 nM.

Which results are given for CN1C(=O)N(c2ccc(C#Cc3cccc(F)c3)cn2)[C@@H]2CCC[C@@H]21 [Ref. 1; Ex. 109, reference compound]?
Activity profile (human mGlu5a receptor [1]): PAM; Efficacy (human mGlu5a receptor [1]): 37%; pEC50 (human mGlu5a receptor [2]): 7.92; Ki (human mGlu5a receptor [2]): 37 nM
